Reference: patent EP4810061A1, “DEUTERATED CAMPTOTHECIN COMPOUND, AND PREPARATION AND USE THEREOF” (Shanghai Qilu Pharmaceutical Research and Development …, priority 2023, dated 2025)

How the values were obtained:
[1] = In vitro plasma stability of payload compounds; assay type: in vitro ADME, Human; details: 5 µM, 37°C
Experimental: (§1) 398 µL of plasma was taken and preheated to 37°C, then co-incubated for 15 minutes. 2 µL of the sample solution was added to the plasma to prepare a final sample concentration of 5 µM. The above solution was co-incubated at 37°C, and 50 µL aliquots were taken at 0, 15, 30, 60, and 120 minutes, followed by the addition of 450 µL of ice-cold acetonitrile (containing the internal standard). The solution was vortexed for 10 minutes, centrifuged, and the remaining content of the parent substrate was detected by the LC-MS/MS method. For specific results, refer to Table 4-1. Table 4-1. Plasma stability of the payload compounds of the present disclosure

[2] = In vitro plasma stability of payload compounds; assay type: in vitro ADME, CD1 mouse; details: 5 µM, 37°C
Experimental: as §1

[3] = Repeated dose toxicity experiment of payload compounds in rats; assay type: in vivo, SD rats; details: for Body weight and food consumption: 0.3 mg/kg and 1.0 mg/kg, 7 consecutive days; for animals showed immediate ataxia after administration / rats died during recovery (of the animals with ataxia): tail vein injection for 7 consecutive days; for animals showed immediate ataxia after administration: main experimental group + TK group
Experimental: Test sample preparation: The test sample was weighed according to the predetermined weight into a glass vial. First, 1 mL of DMSO was added and mixed until the test sample was dissolved, followed by the addition of 1 mL of Solutol HS-15. After mixing thoroughly, 8 mL of sodium chloride injection was added and vortex-mixed to obtain a clear and transparent solution.
SD rats (purchased from Beijing Vital River) were used as test animals. […] During the acclimation period, one cage-side observation was conducted daily; during the dosing period, all animals were subjected to clinical observations twice daily (morning and afternoon). Reactions in various aspects, including the skin, fur, eyes (sclera), ears, nose, oral cavity, chest, abdomen, urogenital area, limbs, as well as respiration, movement, urination, defecation (including urine and feces color), and behavioral changes, were recorded. Daily weight data of the main test group animals were documented. For animals scheduled for dissection, terminal body weight (fasted) was measured prior to dissection. The food intake of the test animals was also recorded. Table 6-1. Results of repeated dose toxicity experiments of the payload compounds of the present disclosure in rats
At the end of the administration, gross dissection was performed on D8 after the administration.

[2H]C1([2H])OC(=O)[C@](O)(CC)c2cc3n(c(=O)c21)Cc1c-3nc2cc(F)c(C)c3c2c1[C@@H](NC(=O)CO)CC3 [Compound 2]
Residual content of parent payload at 120 minutes (relative to 0 minutes) Human plasma [1]: 111.04% | Residual content of parent payload at 120 minutes (relative to 0 minutes) CD1 mouse plasma [2]: 102.54% | Body weight and food consumption [3]: At the same dose, the effects of compound 2 and Dxd on rat body weight and food consumption were essentially comparable; | animals showed immediate ataxia after administration ([3]; 0.3 mpk dose group): compound 2: 0.3 mpk dose group: 13% (2/16) of animals showed immediate ataxia after administration, followed by gradual recovery; | animals showed immediate ataxia after administration ([3]; 1 mpk dose group): compound 2: 1 mpk dose group: 25% (4/16) of animals showed immediate ataxia after administration, followed by gradual recovery; | average food consumption ([3]; ♀ rats, at the same dose, versus control (Dxd) group): for ♀ rats, at the same dose, the average food consumption of the compound 2 group was higher than that of the control group;

[2H]C1([2H])OC(=O)[C@](O)(CC)c2cc3n(c(=O)c21)Cc1c-3nc2cc(F)c(C)c3c2c1[C@@H](NC(=O)[C@H](O)C1CC1)CC3 [Compound 3]
Residual content of parent payload at 120 minutes (relative to 0 minutes) Human plasma [1]: 105.54% | Residual content of parent payload at 120 minutes (relative to 0 minutes) CD1 mouse plasma [2]: 104.97%

[2H]C1([2H])OC(=O)[C@](O)(CC)c2cc3n(c(=O)c21)Cc1c-3nc2cc(F)c(C)c3c2c1[C@@H](NC(=O)C[C@@H](C)O)CC3 [Compound 5]
Residual content of parent payload at 120 minutes (relative to 0 minutes) Human plasma [1]: 107.73% | Residual content of parent payload at 120 minutes (relative to 0 minutes) CD1 mouse plasma [2]: 96.02%

[2H]C1([2H])OC(=O)[C@](O)(CC)c2cc3n(c(=O)c21)Cc1c-3nc2cc(F)c(C)c3c2c1[C@@H](NC(=O)C[C@H](C)O)CC3 [Compound 6]
Residual content of parent payload at 120 minutes (relative to 0 minutes) Human plasma [1]: 94.89% | Residual content of parent payload at 120 minutes (relative to 0 minutes) CD1 mouse plasma [2]: 105.93%

CC[C@@]1(O)C(=O)OCc2c1cc1n(c2=O)Cc2c-1nc1cc(F)c(C)c3c1c2[C@@H](NC(=O)CO)CC3 [Dxd]
Residual content of parent payload at 120 minutes (relative to 0 minutes) Human plasma [1]: 87.57% | Residual content of parent payload at 120 minutes (relative to 0 minutes) CD1 mouse plasma [2]: 95.42% | Body weight and food consumption [3]: Slow/decreased body weight gain; decreased food consumption; | rats died during recovery (of the animals with ataxia) ([3]; 0.3 mpk dose group): 40% | animals showed immediate ataxia after administration ([3]; 0.3 mpk dose group): 31% | rats died during recovery (of the animals with ataxia) ([3]; 1 mpk dose group): 40% | animals showed immediate ataxia after administration ([3]; 1 mpk dose group): 31%
